Assays:
[1] = system: cytosolic superoxide anion; assay: Superoxide anion in cell (cytoplasm), DHE; assay type: cell-based; settings: human diploid fibroblast; 1 mM PQ 30 minutes; FIG. 24A
Description: (§1) The cell was treated with 1 mM of PQ for 30 minutes, and then was cultured at 37° C. for 15 minutes after adding oxidant-sensitive fluorescent dyes (A) DHE (5 uM, cytosol specific) and (B) MitoSOX (5 uM, mitochondria specific), respectively. For identifying the change of fluorescence, the excitation and emission wavelength of DHE were measured at 515 and 590 nm and MitoSOX was measured at 520 and 580 nm by using a multiwell plate reader. The results were indicated by calculating the results of three experiments as a control rate (%). The statistical significant was expressed as *, # p<0.005; ** p<0.05.
The cell was twice washed with DPBS and Ethidium-DNA that fluoresces was immediately measured at excitation wavelength 515 nm and emission wavelength 590 nm by using Cary Eclipse fluorescence spectrophotometer (Varian, Calif., USA) machine.

[2] = system: mitochondria superoxide anion; assay: Superoxide anion in mitochondria, MitoSOX Red; assay type: cell-based; settings: human diploid fibroblast; 1 mM PQ 30 minutes; FIG. 24B
Description: as §1
Mitochondria superoxide anion was measured by using the fluorescence material, i.e., MitoSOX Red. […] The cell was twice washed with DPBS and the fluorescence was immediately measured at excitation wavelength 515 nm and emission wavelength 590 nm by using CEFS [Cary Eclipse fluorescence spectrophotometer (Varian, Calif., USA)] machine.

[3] = system: membrane potential of mitochondria; assay: Membrane potential of mitochondria, DiOC6 assay; assay type: cell-based, human
Description: The protein amount of mitochondria constituent complex was measured by using Western Blot using Complex I (20 kDa ND6 subunit), Complex II (30 kDa FeS, non-heme iron protein, SDHB), Complex III (47 kDa core protein 2), Complex IV (18 kDa subunit IV), Complex V (55 kDa subunit a ATP synthase), and the like. […] The membrane potential (Δψm) of mitochondria used DiOC6. […] Since then, the above fibroblast was treated with 40 nM of DiOC6 for 15 minutes. The results were measured by using Cary Eclipse Fluorescence Spectrophotometer (Varian, Calif., USA) and the excitation wavelength and emission wavelength were measured at 480 nm and 520 nm, respectively.
The change of membrane potential (Δψm) of mitochondria was measured by using a cationic dye, DiOC6 that is a specific fluorescent material for mitochondria. An aspect of the change was measured by using Fluorescence Spectrophotometer. The cell was cultured in 40 nM DiQC6 for 15 minutes and then the fluorescent material that was left was removed by using PBS. The analysis was performed by using Cary Eclipse fluorescence spectrophotometer (Varian, Calif., USA), and then the excitation wavelength was measured at 480 nm, and the emission wavelength was measured at 520 nm.

mitochondria = assay: Mitochondria structure staining with MitoTracker Red; assay type: cell-based, human; settings: pretreated with DDS or DPI, then 1 mM PQ 24 hours; FIG. 30
Description: The first photograph indicates the stained mitochondria of the non-treated human diploid fibroblast as a control, the second photograph indicates the stained mitochondria of the PQ-treated human diploid fibroblast, the third photograph indicates the stained mitochondria of the human diploid fibroblast that was pretreated with DDS and then was treated with PQ, and the final photograph indicates the stained mitochondria of the human diploid fibroblast that was treated with DPI and PQ together (by using Confocal process). The values of (A, B, C and D: ×4000) is means±SEM (n=3), # is p<0.005 relative CC; and * is p<0.005 relative C.
The human diploid fibroblasts were cultured at 24-well plate. After the above experiment materials, i.e., the human diploid fibroblasts, were pretreated and then were treated with PQ for 24 hours, the above cells were treated with MitoTracker Red CMXRos (50 nM), which is a staining material for mitochondria, at 37° C. for 30 minutes. The dye is a marker of function for marking mitochondria through marking a transmembrane potential of mitochondria in a cell. After culturing, the cells were washed with PBS and then fixed with 4% of paraformaldehyde at 4° C. for overnight. […] After washing, the cells were covered with a cover glass and visualized through a fluorescence microscope.

Escherichia coli OP50 = assay: Growth of OP50 bacteria with PABA and DDS; assay type: cell-based; settings: PABA 10 uM added with DDS; FIG. 1
Description: FIG. 1 is a graph showing the growth degree of bacteria by treating with PABA. […] In order to identify the effect of dapsone on the extending of lifespan, the experiment was performed in the following order. At this time, since dapsone is not a water-soluble material, E. coli was cultured in the medium including dapsone and then was used as a feed for C. elegans. […] The administration of dapsone was started after L4 stage that almost finishes the generation, and the experiment was performed as follows under the condition of 20° C. in order to provide the optimal growth environment: […]

human diploid fibroblast = assay: Survival rate of human diploid fibroblast treated with PQ (CCK-8); settings: 1 mM PQ for 48 hours without any pretreatments
Description: The above cell was cultured by adding Cell Counting Kit-8 for 48 hours and then the survival ability of cell was measured. In addition, DPI (5 uM) was pretreated for 30 minutes and NAC (2 mM) was pretreated for 3 hours, and then 1 mM of PQ was treated as a positive control.
The evaluation of survival rate of cell was performed by using Counting Kit (CCK-8) from Dojindo Laboratory Company (Japan). The human diploid fibroblast was cultured at 96-well plate for 24 hours before treating. […] The absorbance was measured at 450 nm.

[4] = DPPH radical scavenging activity in cell-free system; assay type: biochemical; settings: 0.1-100 uM; 200 uM DPPH; FIG. 25A
Description: The radical scavenging activity was measured as the reducing power of
DPPH included in methanol. […] DPPH is a stable free radical, has a thick purple color, and its absorbance is at 517 nm. However, if it reacts with an antioxidant, it has a pale yellow color. The reaction mixture was maintained for 30 minutes at a room temperature without light and then the absorbance was measured at 517 nm. The free radical scavenging activity was calculated as the suppression rate by using the following equation:
% suppression=[(Absorbance of Control−Absorbance of Sample)/Control Absorbance]×100.

c1ccc2c(c1)[I+]c1ccccc1-2 [DPI]
superoxide anion of cytoplasm produced by PQ (DHE assay) [1]: suppressed
production of superoxide anion in the mitochondria [2]: suppress
decrease of membrane potential induced by PQ ([3]; pretreated with DDS (3 hours) or DPI (30 minutes), then 1 mM PQ 24 hours, FIG. 29B): meaningfully maintained
shape of mitochondria after PQ (MitoTracker) (mitochondria): recovered, partially

CC(=O)N[C@@H](CS)C(=O)O [NAC, N-acetyl-L-cystein]
superoxide anion of cytoplasm produced by PQ (DHE assay) [1]: suppressed
production of superoxide anion in the mitochondria [2]: suppress

Nc1ccc(C(=O)O)cc1 [PABA, para-aminobenzoic acid]
growth rate of bacteria relative to control (Escherichia coli OP50): 80%

C[n+]1ccc(-c2cc[n+](C)cc2)cc1 [PQ, paraquat]
viability of human diploid fibroblast compared with the non-treated control (human diploid fibroblast): about 58.8%
membrane potential of mitochondria compared with the control ([3]; human diploid fibroblast, 1 mM PQ for 24 hours): 76.8%

Cc1c(C)c2c(c(C)c1O)CCC(C)(C(=O)O)O2 (stereo not shown) [Trolox]
activity of removing ROS on DPPH in the test tube [4]: strong activity of removing ROS

Source: patent US20110152379A1, “COMPOSITION FOR CONTROL OF AGING AND/OR EXTENSION OF LIFE, CONTAINING DAPSONE AS ACTIVE INGREDIENT” (priority 2008, published 2011)
